Data from patent publication US20250268815A1, “TRANSDERMAL DELIVERY SYSTEMS FOR ADMINISTRATION OF HYDROPHILIC MOLECULES AND METHODS OF MAKING AND USING SAME” (STATE OF ISRAEL, MINISTRY OF AGRICULTURE & RURAL …, priority 2021, published 2025).

Assays:
[1] = system: Human skin (full thickness)
Method: Transdermal insulin delivery was assessed by the Franz cell apparatus (PermeGear, PA, USA). Human skin (full thickness) was obtained from Zen-bio (NC, US). A mechanical skin press apparatus was used to section the skin and it was kept at −20° C. until it was used. On the day of experiment, the skin samples were pre-equilibrated with the PBS for 1 h prior to use, with the dermal side submerged in the buffer. Then, the skin samples were clamped between the donor and receptor chambers, with the epidermal side facing the donor compartment. […] The sunflower oil containing insulin without biopolymer was used as a control treatment. The receptor chamber was filled with 5 ml of PBS containing sodium azide (to prevent microbial growth) and kept at 32±0.5° C. under constant stirring (500 rpm). Samples (200 μL each) were taken at the indicated time points and an equal volume of the buffer was added immediately. The amount of insulin permeation was quantified by ELISA, using a designated standard curve [Mercodia]. All of the samples were tested in three repetitions.

| Compound | trans-epidermal water loss (TEWL), Baseline (skin; before application, 5 hr exposure experiment) [g/m^2/hr] | increase of water loss (TEWL) (skin; positive control, same experimental settings) [fold] | insulin permeation across human skin ex vivo [1] |
| --- | --- | --- | --- |
| CCCCCCCCCCCCOS(=O)(=O)[O-].[Na+] [SDS, sodium dodecyl sulfate] | 10.0 ± 2.4 | ~3 |  |
| Sodium carboxymethyl cellulose [CMC] |  |  | did not enhance insulin permeation |
